Results published in patent publication US6835536B2, “Antimicrobial cationic peptides and formulations thereof” (Micrologix Biotech Inc., priority 2001, dated 2004).

How the values were obtained:
Assay in all cases: Agarose dilution MIC assay
Assay type in all cases: cell-based
C. neoformans = C. neoformans strain CNE001
From the text: (§1) The agarose dilution assay measures antimicrobial activity of peptides and peptide analogues. The activity is expressed as the minimum inhibitory concentration (MIC) in μg/ml of the peptide.
(§2) In order to mimic in vivo conditions, calcium and magnesium supplemented Mueller Hinton broth is used in combination with a low EEO agarose as the bacterial growth medium. Agarose, rather than agar, is used as the charged groups in agar prevent peptide diffusion through the medium. The medium is autoclaved, then cooled to 50-55° C. in a water bath before aseptic addition of a peptide solution. The same volume of different concentrations of peptide solution is added to the cooled, molten agarose that is then poured into a petri plate to a depth of 3-4 mm and allowed to solidify.
(§3) The bacterial inoculum is adjusted to a 0.5 McFarland turbidity standard (PML Microbiological) and then diluted 1:10 before application on to the agarose plate. The final inoculum applied to the agarose is approximately 10^4 CFU in a 5-8 mm diameter spot. The agarose plates are incubated at 35-37° C. for 16 to 20 hours.

E. faecalis = E. faecalis strain EFS001
From the text: as §1, §2, §3

E. coli = E. coli strain ECO005
From the text: as §1, §2, §3

S. aureus = S. aureus strain SAU014; agarose dilution
From the text: as §1, §2, §3

C. albicans = C. albicans strain CAL002; agarose dilution
From the text: as §1, §2, §3

E. cloacae = E. cloacae strain ECL007
From the text: as §1, §2, §3

S. pneumoniae = S. pneumoniae strain SPN002
From the text: as §1, §2, §3

S. epidermidis = S. epidermidis strain SEP010; agarose dilution
From the text: as §1, §2, §3

S. maltophilia = S. maltophilia strain SMA002
From the text: as §1, §2, §3

S. marcescens = S. marcescens strain SMS003
From the text: as §1, §2, §3

S. pyogenes = S. pyogenes strain SPY001
From the text: as §1, §2, §3

S. mitis = S. mitis strain SMT014
From the text: as §1, §2, §3

A. calcoaceticus = A. calcoaceticus strain ACA002
From the text: as §1, §2, §3

P. aeruginosa = P. aeruginosa strain PAE004; agarose dilution
From the text: as §1, §2, §3

C. jeikeium = C. jeikeium strain CJK005
From the text: as §1, §2, §3

K. pneumoniae = conditions: K. pnenmoniae strain KPN001
From the text: as §1, §2, §3

Substance	Minimum Inhibitory Concentration (C. neoformans)	Minimum Inhibitory Concentration (E. faecalis)	Minimum Inhibitory Concentration (E. coli)	Minimum Inhibitory Concentration (S. aureus)	Minimum Inhibitory Concentration (C. albicans)	Minimum Inhibitory Concentration (E. cloacae)	Minimum Inhibitory Concentration (S. pneumoniae)	Minimum Inhibitory Concentration (S. epidermidis)	Minimum Inhibitory Concentration (S. maltophilia)	Minimum Inhibitory Concentration (S. marcescens)	Minimum Inhibitory Concentration (S. pyogenes)	Minimum Inhibitory Concentration (S. mitis)	Minimum Inhibitory Concentration (A. calcoaceticus)	Minimum Inhibitory Concentration (P. aeruginosa)	Minimum Inhibitory Concentration (C. jeikeium)	Minimum Inhibitory Concentration (K. pneumoniae)
R L W V W W V W R r [Peptide 11F68CN]	8 µg/mL	2 µg/mL	2 µg/mL	2 µg/mL	32 µg/mL	32 µg/mL	2 µg/mL	1 µg/mL	2 µg/mL	>128 µg/mL	1 µg/mL	1 µg/mL	1 µg/mL	32 µg/mL	0.5 µg/mL	2 µg/mL
R L W W V V W W R R [Peptide 11F56CN]	8 µg/mL	2 µg/mL	2 µg/mL	1 µg/mL	16 µg/mL	32 µg/mL	2 µg/mL	1 µg/mL	2 µg/mL	>128 µg/mL	1 µg/mL	1 µg/mL	1 µg/mL	32 µg/mL	0.5 µg/mL	2 µg/mL
i L K K W P W W P W R R k [Peptide 11E3CN]	4 µg/mL	64 µg/mL	8 µg/mL	8 µg/mL	32 µg/mL	>128 µg/mL	4 µg/mL	4 µg/mL	64 µg/mL	>128 µg/mL	1 µg/mL	2 µg/mL	4 µg/mL	64 µg/mL	0.5 µg/mL	32 µg/mL
r L W V W W V W R R [Peptide 11F67CN]	8 µg/mL	4 µg/mL	2 µg/mL	2 µg/mL	32 µg/mL	32 µg/mL	2 µg/mL	1 µg/mL	2 µg/mL	>128 µg/mL	1 µg/mL	1 µg/mL	2 µg/mL	16 µg/mL	0.5 µg/mL	2 µg/mL
